Assay results from ChEMBL document CHEMBL5500388, “Design, synthesis and biological evaluation of 4-(indolin-1-yl)-6-substituted-pyrido[3,2-d]pyrimidine derivatives as Mnk1/2 inhibitors” (Eur J Med Chem, 2024).

Key:
MOLM-13 [1] = assay: Induction of cell cycle arrest at G0/G1 stage in human MOLM-13 cells at 2 uM treated for 24 hrs by PI/RNase staining based flow cytometry (reference value: 53.98 %); assay type: functional
MOLM-13 [2] = assay: Induction of cell cycle arrest at G0/G1 stage in human MOLM-13 cells at 4 uM treated for 24 hrs by PI/RNase staining based flow cytometry (reference value: 53.98 %); assay type: functional
MOLM-13 [3] = assay: Induction of cell cycle arrest at G0/G1 stage in human MOLM-13 cells at 8 uM treated for 24 hrs by PI/RNase staining based flow cytometry (reference value: 53.98 %); assay type: functional
K562 [4] = assay: Induction of cell cycle arrest at G0/G1 stage in human K562 cells at 4 uM treated for 24 hrs by PI/RNase staining based flow cytometry (reference value: 38.8 %); assay type: functional
K562 [5] = assay: Induction of cell cycle arrest at G0/G1 stage in human K562 cells at 8 uM treated for 24 hrs by PI/RNase staining based flow cytometry (reference value: 38.8 %); assay type: functional
K562 [6] = assay: Induction of cell cycle arrest at G0/G1 stage in human K562 cells at 16 uM treated for 24 hrs by PI/RNase staining based flow cytometry (reference value: 38.8 %); assay type: functional
HCT-116 = assay: cells; conditions: Homo sapiens, HCT-116, 96 h
MOLM-13 [7] = assay: cells; conditions: Homo sapiens, MOLM-13, 72 h
K562 [8] = assay: cells; conditions: Homo sapiens, K562, 72 h
HL-60 = assay: cells; conditions: Homo sapiens, HL-60, 72 h

Nc1ncnc2[nH]nc(Nc3ccc(F)cc3)c12
Activity (MOLM-13 [1]): 55.79% | Activity (MOLM-13 [2]): 59.95% | Activity (MOLM-13 [3]): 66.39% | Activity (K562 [4]): 48.93% | Activity (K562 [5]): 52.06% | Activity (K562 [6]): 58.15% | GI50 (HCT-116): 10.2 µM | GI50 (MOLM-13 [7]): 10.7 µM | GI50 (K562 [8]): 26.6 µM | GI50 (HL-60): 8.42 µM
